Data on 24 molecules can be found in patent publication US11332459B2 (TEIJIN PHARMA LIMITED, priority 2017, dated 2022).

Structures are written as SMILES. Some results are limits rather than exact numbers.

This assay addresses T1, human TRPC6 (Homo sapiens, UniProt Q9Y210).
T1 construct: expressed in transfected cells
T1 sequence (Q9Y210 1-931): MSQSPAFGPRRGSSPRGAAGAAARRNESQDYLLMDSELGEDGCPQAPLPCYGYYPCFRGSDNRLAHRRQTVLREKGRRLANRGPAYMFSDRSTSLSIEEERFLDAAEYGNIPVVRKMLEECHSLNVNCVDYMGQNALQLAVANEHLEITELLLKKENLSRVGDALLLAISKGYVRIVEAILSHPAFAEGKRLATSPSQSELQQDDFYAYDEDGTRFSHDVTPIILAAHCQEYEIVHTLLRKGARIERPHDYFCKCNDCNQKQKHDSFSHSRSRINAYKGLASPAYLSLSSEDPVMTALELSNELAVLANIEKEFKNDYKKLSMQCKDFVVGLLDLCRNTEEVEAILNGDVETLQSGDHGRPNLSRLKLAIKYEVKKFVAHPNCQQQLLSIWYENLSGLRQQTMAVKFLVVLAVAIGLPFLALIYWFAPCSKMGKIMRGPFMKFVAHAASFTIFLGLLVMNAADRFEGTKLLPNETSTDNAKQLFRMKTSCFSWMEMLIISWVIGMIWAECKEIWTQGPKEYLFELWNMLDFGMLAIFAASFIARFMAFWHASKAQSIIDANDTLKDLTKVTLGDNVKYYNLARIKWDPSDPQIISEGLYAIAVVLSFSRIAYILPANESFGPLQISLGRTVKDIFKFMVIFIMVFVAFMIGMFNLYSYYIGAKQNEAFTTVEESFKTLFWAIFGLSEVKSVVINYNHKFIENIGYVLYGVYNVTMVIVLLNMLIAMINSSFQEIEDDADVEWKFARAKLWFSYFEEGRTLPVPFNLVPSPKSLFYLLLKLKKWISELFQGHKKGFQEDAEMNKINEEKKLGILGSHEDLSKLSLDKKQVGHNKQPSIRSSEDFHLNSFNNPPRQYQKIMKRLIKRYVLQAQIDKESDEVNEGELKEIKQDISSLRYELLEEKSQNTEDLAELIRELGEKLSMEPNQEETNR
Kind of assay: TRPC6 calcium flux assay (FLIPR, OAG-stimulated calcium influx). Format: cell-based. To be noted: HEK293 cells stably transfected with human TRPC6, read-out: hTRPC6 Potency. The protocol: Biological Example 1 TRPC6 Calcium Flux Assay
Potency of TRPC6 (Transient receptor potential channel family C6) inhibitors were measured by their inhibition of Calcium influx trigged by […] (1-Oleoyl-2-acetyl-sn-glycerol, Millipore Sigma, O6754) stimulation on HEK293 cells stablely transfected with human TRPC6 using a FLIPR tetra system. Cells were grown in a humidified environment at 37° C. under 5% CO2 using the growth medium with the following selective reagents (Dulbecco's Modified Eagle's Medium (DMEM) high glucose, 10% Fetal Bovine Serum, 1×PSGlu (penicillin-streptomycin glutamine), 1×NEAA (Non-essential amino acid), 1× Na Pyruvate and 200 ug/ml Hygromycin). For general passage, cells were grown to 70-90% confluency; the media was removed, and the cells were gently washed 2 times with calcium and magnesium free PBS (phosphate-buffered saline). Trypsin (3 mL) was applied for 5 minutes at 37° C. The cells were dislodged by rapping flask against base of a hand and 7 mL of growth medium was added to deactivate trypsin and re-suspend cells. The usual splitting schedule was 1:5 every 2-3 days.
Cells were plated the day before the assay, plating cell density is 1.0-1.5×10^4/25 μl/well in poly-D-lysine (PDL) coated 384-well plates using either multichannel pipettes or multidrop. These cells were first incubated with fluorescence dye at room temperature for 90-120 minutes after they were grown on PDL-coated 384-well black plates overnight (Dye loading buffer 10 ml example: 9 mL assay buffer, 1 mL, 10×PBX signal enhancer, 10 μL Calcium indicator). The cells were incubated with a dose of compounds for 25 minutes before being stimulated with TRPC6 agonist OAG. The OAG solution was prepared by adding OAG into assay buffer (Ca ringer solution base: 10 mM HEPES (4-(2-hydroxyethyl)-1-piperazine-ethanesulfonic acid), 4 mM MgCl2, 120 mM NaCl, 5 mM KCl, pH=7.2 @25° C.)+0.1% BSA+2 mM CaCl2) to the concentration of 0.2 mM/2% DMSO, which achieves a final on cell concentration of 50 uM/0.5% DMSO. 12.5 uL OAG mixture was added and the activation of the TRPC6 channel was measured by the change of intracellular Calcium levels on FLIPR terra system.
Data was acquired by measuring the fluorescent peak signal subtracted from the background during the 180 second imaging frame. Each data point is further normalized to 100% of OAG triggered signal vs. buffer. Table 16 provides the IC50 for each compound, which data is obtained by plotting peak signal over the compound dose.
For orientation: A change in cytosolic calcium serves as a functional read-out for many receptors and channels.
On to `CC(c1ncc(Cl)cn1)n1c(N2CC[C@@H](F)[C@H](N)C2)nc2cc(F)c(F)cc21` (stereo in doubt) [Example 508, (3R,4R)-1-(1-((R)-1-(5-chloropyrimidin-2-yl)ethyl)-5,6-difluoro-1H-benzo[d]imidazol-2-yl)-4-fluoropiperidin-3-amine], for which the IC50 stood at 112 nM.
As to `N#Cc1ccc(Cn2c(N3CCC[C@H](N)C3)nc3ccc(Cl)cc32)nc1` [Example 1, (S)-6-((2-(3-aminopiperidin-1-yl)-6-chloro-1H-benzo[d]imidazol-1-yl)methyl)nicotinonitrile], the IC50 is 0.696 nM.
For `N#Cc1ccc(Cn2c(N3CCC[C@H](N)C3)nc3cc(Cl)ccc32)nc1` [Example 2, (S)-6-((2-(3-aminopiperidin-1-yl)-5-chloro-1H-benzo[d]imidazol-1-yl)methyl)nicotinonitrile], the IC50 is 3.2 nM.
To `N#Cc1ccc(Cn2c(N3CCC[C@H](N)C3)nc3c(Cl)cccc32)nc1` [Example 3, (S)-6-((2-(3-aminopiperidin-1-yl)-4-chloro-1H-benzo[d]imidazol-1-yl)methyl)nicotinonitrile] belongs 1.99 nM; to `N#Cc1ccc(Cn2c(N3CC[C@@H](F)[C@H](N)C3)nc3c(Cl)cccc32)nc1` [Example 4], 1.67 nM; to `N#Cc1ccc(Cn2c(N3CC[C@H](F)[C@H](N)C3)nc3c(Cl)cccc32)nc1` [Example 5], 2.92 nM.
As for `N#Cc1ccc(Cn2c(N3CC[C@@H](F)[C@H](N)C3)nc3ccc(Cl)cc32)nc1` [Example 6, 6-((2-((3R,4R)-3-amino-4-fluoropiperidin-1-yl)-6-chloro-1H-benzo[d]imidazol-1-yl)methyl)nicotinonitrile], the figure is 0.4 nM; as for `N#Cc1ccc(Cn2c(N3CC[C@@H](F)[C@H](N)C3)nc3cc(Cl)ccc32)nc1` [Example 7, 6-((2-((3R,4R)-3-amino-4-fluoropiperidin-1-yl)-5-chloro-1H-benzo[d]imidazol-1-yl)methyl)nicotinonitrile], 1.17 nM; as for `N#Cc1ccc(Cn2c(N3CC[C@H](F)[C@H](N)C3)nc3ccc(Cl)cc32)nc1` [Example 8, 6-((2-((3R,4S)-3-amino-4-fluoropiperidin-1-yl)-6-chloro-1H-benzo[d]imidazol-1-yl)methyl)nicotinonitrile], 0.283 nM.
To `N#Cc1ccc(Cn2c(N3CC[C@H](F)[C@H](N)C3)nc3cc(Cl)ccc32)nc1` [Example 9, 6-((2-((3R,4S)-3-amino-4-fluoropiperidin-1-yl)-5-chloro-1H-benzo[d]imidazol-1-yl)methyl)nicotinonitrile] belongs 1.61 nM; to `N#Cc1ccc(Cn2c(N3CCC(F)(F)[C@H](N)C3)nc3c(Cl)cccc32)nc1` [Example 10, (R)-6-((2-(3-amino-4,4-difluoropiperidin-1-yl)-4-chloro-1H-benzo[d]imidazol-1-yl)methyl)nicotinonitrile], 6.06 nM; to `N#Cc1ccc(Cn2c(N3CC[C@@H](F)[C@H](N)C3)nc3c(C#N)cccc32)nc1` [Example 11, 2-((3R,4R)-3-amino-4-fluoropiperidin-1-yl)-1-((5-cyanopyridin-2-yl)methyl)-1H-benzo[d]imidazole-4-carbonitrile], 1.79 nM.
As to `N#Cc1ccc(Cn2c(N3CCC(F)(F)[C@H](N)C3)nc3ccc(Cl)cc32)nc1` [Example 12, (R)-6-((2-(3-amino-4,4-difluoropiperidin-1-yl)-6-chloro-1H-benzo[d]imidazol-1-yl)methyl)nicotinonitrile], the IC50 worked out at 0.285 nM.
In the case of `N#Cc1ccc(Cn2c(N3CCC(F)(F)[C@H](N)C3)nc3cc(Cl)ccc32)nc1` [Example 13, (R)-6-((2-(3-amino-4,4-difluoropiperidin-1-yl)-5-chloro-1H-benzo[d]imidazol-1-yl)methyl)nicotinonitrile], the IC50 is 6.87 nM.
As for `N#Cc1ccc(Cn2c(N3CC[C@@H](F)[C@H](N)C3)nc3ccc(C(F)(F)F)cc32)nc1` [Example 14, 6-((2-((3R,4R)-3-amino-4-fluoropiperidin-1-yl)-6-(trifluoromethyl)-1H-benzo[d]imidazol-1-yl)methyl)nicotinonitrile], the figure is 0.377 nM.
With `N#Cc1ccc(Cn2c(N3CC[C@@H](F)[C@H](N)C3)nc3cc(C(F)(F)F)ccc32)nc1` [Example 15, 6-((2-((3R,4R)-3-amino-4-fluoropiperidin-1-yl)-5-(trifluoromethyl)-1H-benzo[d]imidazol-1-yl)methyl)nicotinonitrile], the IC50 was 4.39 nM.
`N#Cc1ccc(Cn2c(N3CC[C@H](F)[C@@H](N)C3)nc3ccccc32)nc1` [Example 16, 6-((2-((3S,4S)-3-amino-4-fluoropiperidin-1-yl)-1H-benzo[d]imidazol-1-yl)methyl)nicotinonitrile]: the IC50 is 224 nM.
As for `N#Cc1ccc(Cn2c(N3C[C@@H](N)CC(F)(F)C3)nc3ccccc32)nc1` [Example 17, (S)-6-((2-(5-amino-3,3-difluoropiperidin-1-yl)-1H-benzo[d]imidazol-1-yl)methyl)nicotinonitrile], the figure is 118 nM; as for `N#Cc1ccc(Cn2c(N3CC[C@@H](F)[C@H](N)C3)nc3c(C#N)cc(F)cc32)nc1` [Example 18, 2-((3R,4R)-3-amino-4-fluoropiperidin-1-yl)-1-((5-cyanopyridin-2-yl)methyl)-6-fluoro-1H-benzo[d]imidazole-4-carbonitrile], 7.85 nM.
Regarding `N#Cc1ccc(Cn2c(N3CC[C@@H](F)[C@H](N)C3)nc3ccc(OC(F)(F)F)cc32)nc1` [Example 19, 6-((2-((3R,4R)-3-amino-4-fluoropiperidin-1-yl)-6-(trifluoromethoxy)-1H-benzo[d]imidazol-1-yl)methyl)nicotinonitrile], the IC50 worked out at 0.956 nM.
As for `N#Cc1ccc(Cn2c(N3CC[C@@H](F)[C@H](N)C3)nc3cc(OC(F)(F)F)ccc32)nc1` [Example 20, 6-((2-((3R,4R)-3-amino-4-fluoropiperidin-1-yl)-5-(trifluoromethoxy)-1H-benzo[d]imidazol-1-yl)methyl)nicotinonitrile], the figure is 1.92 nM; as for `N#Cc1ccc(Cn2c(N3CC[C@@H](F)[C@H](N)C3)nc3cc(C(F)(F)F)c(F)cc32)nc1` [Example 21, 6-((2-((3R,4R)-3-amino-4-fluoropiperidin-1-yl)-6-fluoro-5-(trifluoromethyl)-1H-benzo[d]imidazol-1-yl)methyl)nicotinonitrile], 0.658 nM; as for `N#Cc1ccc(Cn2c(N3CC[C@@H](F)[C@H](N)C3)nc3cc(F)c(C(F)(F)F)cc32)nc1` [Example 22, 6-((2-((3R,4R)-3-amino-4-fluoropiperidin-1-yl)-5-fluoro-6-(trifluoromethyl)-1H-benzo[d]imidazol-1-yl)methyl)nicotinonitrile], 1.62 nM.
To `N#Cc1ccc(Cn2c(N3CC[C@@H]4CCN[C@H]4C3)nc3ccccc32)nc1` [Example 23, 6-((2-((3aS,7aR)-hexahydro-1H-pyrrolo[2,3-c]pyridin-6(2H)-yl)-1H-benzo[d]imidazol-1-yl)methyl)nicotinonitrile] belongs greater than 3750 nM.
